{"source": "patent US6248586A", "about": "“Antisense modulation of PKA catalytic subunit C-alpha expression” (Isis Pharmaceuticals, Inc., priority 1999, dated 2001)", "data": [{"tested_on": "human PKA catalytic subunit C-alpha mRNA", "assay": "Inhibition of PKA catalytic subunit C-alpha mRNA levels in oligonucleotide-treated cells, quantitative real-time PCR", "type": "cell-based", "parameters": "concentration or dose not given beside the values", "settings": "Table 2, chimeric phosphorothioate 2'-MOE gapmers, averaged from two experiments", "protocol": "when cells reached 80% confluency, they were treated with oligonucleotide. For cells grown in 96-well plates, wells were washed once with 200 μL. OPTI-MEM™-1 reduced-serum medium (Gibco BRL) and then treated with 130 μL of OPTI-MEM™-1 containing 3.75 μg/mL LIPOFECTIN™ (Gibco BRL) and the desired concentration of oligonucleotide. After 4-7 hours of treatment, the medium was replaced with fresh medium. Cells were harvested 16-24 hours after oligonucleotide treatment.\nPoly(A)+ mRNA was isolated according to Miura et al., Clin. Chem., 1996, 42, 1758-1764. Other methods for poly(A)+ mRNA isolation are taught in, for example, Ausubel, F. M. et al., Current Protocols in Molecular Biology, Volume 1, pp. 4.5.1-4.5.3, John Wiley & Sons, Inc., 1993. Briefly, for cells grown on 96-well plates, growth medium was removed from the cells and each well was washed with 200 μL cold PBS. 60 μL lysis buffer (10 mM Tris-HCl, pH 7.6, 1 mM EDTA, 0.5 M NaCl, 0.5% NP-40, 20 mM vanadyl-ribonucleoside complex) was added to each well, the plate was gently agitated and then incubated at room temperature for five minutes. 55 μL of lysate was transferred to Oligo d(T) coated 96-well plates (AGCT Inc., Irvine Calif.). Plates were incubated for 60 minutes at room temperature, washed 3 times with 200 μL of wash buffer (10 mM Tris-HCl pH 7.6, 1 mM EDTA, 0.3 M NaCl). After the final wash, the plate was blotted on paper towels to remove excess wash buffer and then air-dried for 5 minutes. 60 μL of elution buffer (5 mM Tris-HCl pH 7.6), preheated to 70° C. was added to each well, the plate was incubated on a 90° C. hot plate for 5 minutes, and the eluate was then transferred to a fresh 96-well plate.\nQuantitat:ion of PKA catalytic subunit C-alpha mRNA levels was determined by real-time quantitative PCR using the ABI PRISM™ […] Sequence Detection System (PE-Applied Biosystems, Foster City, Calif.) according to manufacturer's instructions. This is a closed-tube, non-gel-based, fluorescence detection system which allows high-throughput quantitation of polymerase chain reaction (PCR) products in real-time. As opposed to standard PCR, in which amplification products are quantitated after the PCR is completed, products in real-time quantitative PCR are quantitated as they accumulate. This is accomplished by including in the PCR reaction an oligonucleotide probe that anneals specifically between the forward and reverse PCR primers, and contains two fluorescent dyes. A reporter dye (e.g., JOE, FAM, or VIC, obtained from either Operon Technologies Inc., Alameda, Calif. or PE-Applied Biosystems, Foster City, Calif.) is attached to the 5' end of the probe and a quencher dye (e.g., TAMRA, obtained from either Operon Technologies Inc., Alameda, Calif. or PE-Applied Biosystems, Foster City, Calif.) is attached to the 3' end of the probe. When the probe and dyes are intact, reporter dye emission is quenched by the proximity of the 3' quencher dye. During amplification, annealing of the probe to the target sequence creates a substrate that can be cleaved by the 5'-exonuclease activity of Taq polymerase. […] With each cycle, additional reporter dye molecules are cleaved from their respective probes, and the fluorescence intensity is monitored at regular intervals by laser optics built into the ABI PRISM™ 7700 Sequence Detection System. In each assay, a series of parallel reactions containing serial dilutions of mRNA from untreated control samples generates a standard curve that is used to quantitate the percent inhibition after antisense oligonucleotide treatment of test samples.\nPCR reagents were obtained from PE-Applied Biosystems, Foster City, Calif. […]", "units": {"% Inhibition of PKA catalytic subunit C-alpha mRNA levels": "%"}, "values": [{"substance": "102599 (antisense GCGGCGGGTGCTGGCTGCGG; chemistry not given here) [compound 102599]", "% Inhibition of PKA catalytic subunit C-alpha mRNA levels": 77}, {"substance": "102604 (antisense TCGCGGCGGCGGCGGCCGGG; chemistry not given here) [compound 102604]", "% Inhibition of PKA catalytic subunit C-alpha mRNA levels": 70}, {"substance": "102609 (antisense CATCGCGGCGGCGGCGGCCG; chemistry not given here) [compound 102609]", "% Inhibition of PKA catalytic subunit C-alpha mRNA levels": 66}, {"substance": "102614 (antisense CCCATCGCGGCGGCGGCGGC; chemistry not given here) [compound 102614]", "% Inhibition of PKA catalytic subunit C-alpha mRNA levels": 77}, {"substance": "102619 (antisense TGCCCATCGCGGCGGCGGCG; chemistry not given here) [compound 102619]", "% Inhibition of PKA catalytic subunit C-alpha mRNA levels": 70}, {"substance": "102624 (antisense GTTGCCCATCGCGGCGGCGG; chemistry not given here) [compound 102624]", "% Inhibition of PKA catalytic subunit C-alpha mRNA levels": 81}, {"substance": "102629 (antisense GCGTTGCCCATCGCGGCGGC; chemistry not given here) [compound 102629]", "% Inhibition of PKA catalytic subunit C-alpha mRNA levels": 79}, {"substance": "102633 (antisense CGGCGTTGCCCATCGCGGCG; chemistry not given here) [compound 102633]", "% Inhibition of PKA catalytic subunit C-alpha mRNA levels": 81}, {"substance": "102636 (antisense GGCGGCGTTGCCCATCGCGG; chemistry not given here) [compound 102636]", "% Inhibition of PKA catalytic subunit C-alpha mRNA levels": 41}, {"substance": "102640 (antisense GCGGCGGCGTTGCCCATCGC; chemistry not given here) [compound 102640]", "% Inhibition of PKA catalytic subunit C-alpha mRNA levels": 87}, {"substance": "102645 (antisense CGGCGGCGGCGTTGCCCATC; chemistry not given here) [compound 102645]", "% Inhibition of PKA catalytic subunit C-alpha mRNA levels": 84}, {"substance": "102649 (antisense GGCGGCGGCGGCGTTGCCCA; chemistry not given here) [compound 102649]", "% Inhibition of PKA catalytic subunit C-alpha mRNA levels": 85}, {"substance": "102653 (antisense ATTCTTTCACGCTCTCCTGC; chemistry not given here) [compound 102653]", "% Inhibition of PKA catalytic subunit C-alpha mRNA levels": 55}, {"substance": "102657 (antisense CAAACTGATCCAAGTGGGCT; chemistry not given here) [compound 102657]", "% Inhibition of PKA catalytic subunit C-alpha mRNA levels": 73}, {"substance": "102660 (antisense CCAGCATCACCCGCCCGAAG; chemistry not given here) [compound 102660]", "% Inhibition of PKA catalytic subunit C-alpha mRNA levels": 82}, {"substance": "102664 (antisense CTTCTGTTTGTCGAGGATCT; chemistry not given here) [compound 102664]", "% Inhibition of PKA catalytic subunit C-alpha mRNA levels": 76}, {"substance": "102668 (antisense GCTTGCAGGATGCGCTTTTC; chemistry not given here) [compound 102668]", "% Inhibition of PKA catalytic subunit C-alpha mRNA levels": 76}, {"substance": "102672 (antisense GTTGTCCTTGAAGGAGAACT; chemistry not given here) [compound 102672]", "% Inhibition of PKA catalytic subunit C-alpha mRNA levels": 28}, {"substance": "102676 (antisense GAACATCTCCCCGCCGGGCA; chemistry not given here) [compound 102676]", "% Inhibition of PKA catalytic subunit C-alpha mRNA levels": 92}, {"substance": "102680 (antisense TAGATGAGATCCAGCGAGTG; chemistry not given here) [compound 102680]", "% Inhibition of PKA catalytic subunit C-alpha mRNA levels": 33}, {"substance": "102684 (antisense GCGGCCCTTCACGCGCTTGG; chemistry not given here) [compound 102684]", "% Inhibition of PKA catalytic subunit C-alpha mRNA levels": 63}, {"substance": "102688 (antisense TCTGCGAAGAAGGGCGGGTA; chemistry not given here) [compound 102688]", "% Inhibition of PKA catalytic subunit C-alpha mRNA levels": 52}, {"substance": "102692 (antisense TCCTTCAAGTCAGAGCTGAA; chemistry not given here) [compound 102692]", "% Inhibition of PKA catalytic subunit C-alpha mRNA levels": 67}, {"substance": "102696 (antisense AAACCACTTGTGGTTCTTGA; chemistry not given here) [compound 102696]", "% Inhibition of PKA catalytic subunit C-alpha mRNA levels": 71}, {"substance": "102700 (antisense CTTCCTCATAGTCGTCAAAG; chemistry not given here) [compound 102700]", "% Inhibition of PKA catalytic subunit C-alpha mRNA levels": 44}, {"substance": "102703 (antisense GGCATGCCCCTAAAACTCAG; chemistry not given here) [compound 102703]", "% Inhibition of PKA catalytic subunit C-alpha mRNA levels": 26}, {"substance": "102707 (antisense GGAGCAGCTGGTGTTTCTGT; chemistry not given here) [compound 102707]", "% Inhibition of PKA catalytic subunit C-alpha mRNA levels": 73}, {"substance": "102711 (antisense TTGGCGCTTCGTTCATTTGC; chemistry not given here) [compound 102711]", "% Inhibition of PKA catalytic subunit C-alpha mRNA levels": 60}, {"substance": "102716 (antisense AAGCAACCCACTGAACATGT; chemistry not given here) [compound 102716]", "% Inhibition of PKA catalytic subunit C-alpha mRNA levels": 63}, {"substance": "102720 (antisense GCTTCTCTTTAAAATGGATT; chemistry not given here) [compound 102720]", "% Inhibition of PKA catalytic subunit C-alpha mRNA levels": 56}, {"substance": "102724 (antisense ACCCTCGCAGGATTGGCAGA; chemistry not given here) [compound 102724]", "% Inhibition of PKA catalytic subunit C-alpha mRNA levels": 55}, {"substance": "102727 (antisense CGCTGCTGGGAGGAAAGACT; chemistry not given here) [compound 102727]", "% Inhibition of PKA catalytic subunit C-alpha mRNA levels": 60}, {"substance": "102731 (antisense TGCAGGGATGCCCTCCCCAC; chemistry not given here) [compound 102731]", "% Inhibition of PKA catalytic subunit C-alpha mRNA levels": 54}, {"substance": "102736 (antisense CCTTGAACCCCGGGCCGTGG; chemistry not given here) [compound 102736]", "% Inhibition of PKA catalytic subunit C-alpha mRNA levels": 65}, {"substance": "102738 (antisense CAGGCAGCCCCTCCCCAGCA; chemistry not given here) [compound 102738]", "% Inhibition of PKA catalytic subunit C-alpha mRNA levels": 31}, {"substance": "102741 (antisense AGCACAAATGAGAAAGTGGG; chemistry not given here) [compound 102741]", "% Inhibition of PKA catalytic subunit C-alpha mRNA levels": 53}, {"substance": "102744 (antisense TGGCTCCCCAGCGGCTCCCC; chemistry not given here) [compound 102744]", "% Inhibition of PKA catalytic subunit C-alpha mRNA levels": 77}, {"substance": "102747 (antisense CACACAGGTTGAATCGCCCC; chemistry not given here) [compound 102747]", "% Inhibition of PKA catalytic subunit C-alpha mRNA levels": 81}, {"substance": "102750 (antisense TAGTTTTCAAATATGTTTAC; chemistry not given here) [compound 102750]", "% Inhibition of PKA catalytic subunit C-alpha mRNA levels": 66}]}]}
